# According to BindingDB's records for doi:10.1016/j.bmcl.2005.06.069 (National Health Research Institutes, 2005):
# Target: Echovirus 9
# Assay: Inhibitory activity against Echovirus 9 using plaque reduction assay
smiles,measurement,value
C[C@H](CCOc1ccc(-c2ccc(Cl)cc2)cc1)CCN1CCN(c2ccncc2)C1=O [1-[(S)-5-(4'-Chloro-biphenyl-4-yloxy)-3-methyl-pentyl]-3-pyridin-4-yl-imidazolidin-2-one],IC50,> 25 µM
